# According to the METLIN SMRT retention time set (Domingo-Almenara et al. 2019):
# Test: gradient 5% acetonitrile 3 min, to 50% in 2 min, to 85% in 15 min, held 3 min, 100 µL/min
# Conditions: column: Zorbax Extend-C18 2.1 x 50 mm; eluents: water / acetonitrile, 0.1% formic acid
# How it was run: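 Each retention time is based on an adduct peak selected computationally and verified by manual inspection. Measurements used HPLC–quadrupole time-of-flight mass spectrometry in positive and negative ionization mode on mixtures of ~100 pure standards. Chromatography ran on a Zorbax Extend-C18 column (2.1 × 50 mm, 1.8 μm) at 100 μL/min with water and acetonitrile, each containing 0.1% formic acid, and dead and dwell volumes of 40 μL and 900 μL.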
row,Compound,RP-LC retention time [s]
1,COC(=O)c1cccc(Nc2c(-c3ccc(F)cc3)nc3cnccn23)c1,830
2,O=C(CCC1CCCC1)Nc1nc(-c2ccc(Cl)cc2)cs1,1290
3,CCCN(Cc1ccc(OC)cc1)Cc1cc(=O)n2cccc(C)c2n1,644
4,Cc1ccc(S(=O)(=O)N2CCCOC2CNC(=O)C(=O)NCCCn2ccnc2)cc1 (centres undefined),558
5,CCCn1ccc2sc(C)c(C(=O)N3CCN(C(C)C)CC3)c2c1=O,587
6,Cc1nn(C(C)C(=O)NCCc2ccco2)c(=O)c2nn(-c3ccccc3)c(C)c12 (centres undefined),788
7,CCS(=O)(=O)c1nc2ccc(NS(=O)(=O)c3ccc4c(c3)oc(=O)n4C)cc2s1,805
8,Cc1cccc(N2C(=O)CN(Cc3ccc(F)cc3)[C@H]3CS(=O)(=O)C[C@H]32)c1,812
9,O=C(Nc1cccc(F)c1)N1CC(Oc2ccc(-c3nc(-c4ccccc4)no3)cc2)C1,1200
10,Cc1cccc(C)c1NC(=O)Cn1c(=O)n(-c2ccccc2)c(=O)c2c1cc(C)n2C,864
11,CC(C)(C)OC(=O)N1CCN(c2ncc(S(=O)(=O)c3ccc(Cl)cc3)c(N)n2)CC1,1060
12,Nc1c(-c2nnc(SCC(=O)N3CCOCC3)n2CC2CCCO2)sc2ncccc12 (centres undefined),641
13,CCc1nccn1Cc1nc(-c2ccc(F)cc2)no1,625
14,CCOC(=O)/C=C/c1ccc(C(=O)OCC)[nH]1,947
15,O=C(Nc1ccc(Cl)cc1)N1CCc2nc[nH]c2C1,594
16,O=C1CC(c2nc3ccccc3n2CC(O)COc2ccccc2Cl)CN1Cc1ccccc1 (centres undefined),797
17,Cc1ccc(-c2csc3c(=O)n(Cc4cc(=O)n5ccccc5n4)cnc23)cc1,847
18,Brc1cccc(-c2nn3c(-c4ccccn4)nnc3s2)c1,860
19,CCCc1nnc(NC(=O)C2CC(=O)N(CCc3c[nH]c4ccc(Cl)cc34)C2)s1 (centres undefined),764
20,CCN1C(=O)COc2ccc(-c3noc(-c4cnccn4)n3)cc21,802
21,CCOc1ccc(-c2noc(CN3N=NC4C(=O)N(c5ccc(C)c(F)c5)C(=O)C43)n2)cc1OC (centres undefined),801
22,O=C(c1ccc(CN2C(=O)CCn3nc(-c4ccccc4)cc32)cc1)N1CCN(c2ccccn2)CC1,638
23,CC(NC(=O)C1CCN(c2cnc3nccnc3c2)CC1)c1ccc(F)cc1 (centres undefined),702

row,Compound,RP-LC retention time [s]
1,NS(=O)(=O)c1ccc(CCNC(=O)c2coc(NC(=O)c3cccs3)n2)cc1,603
2,CC(C)Oc1ccccc1CN1C[C@@H]2C(=O)N(CCCN3CCCC3=O)C(=O)[C@@H]2C1,630
3,Cc1ncc2c(n1)C[C@@H]1CC[C@H]2N1C(=O)COc1ccccc1,669
4,O=C(NC1CC1)c1ccccc1OC1CN(Cc2ccsc2)C1,600
5,CC(C)n1cnnc1CC1CN(C(=O)Nc2ccccc2F)C1,608
6,Cc1cc(C)cc(C(=O)N2CCN(S(=O)(=O)c3cc4c5c(c3)CCC(=O)N5CCC4)CC2)c1,815
7,Cc1ccc(CNC(=O)C2(C)CCCN(C(=O)Nc3cc(Cl)ccc3C)C2)cc1 (centres undefined),1080
8,Cc1nn(CC(=O)NCCC2=CCCCC2)c(=O)c2c(-n3cccc3)n(-c3cccc(F)c3)nc12,1090
9,CC(C)n1c(CCNC(=O)CCc2ccccc2)nc2cccnc21,716
10,CC(C)C(=O)Nc1ccc(C(=O)NCCNS(=O)(=O)c2ccc3c(c2)OCCO3)cc1,661
11,CCCNC(=O)C1CCCN(c2ccc(SCC(=O)Nc3cccc(CC)c3)nn2)C1 (centres undefined),733
12,CCCn1cc(C2=CCN(C(=O)Nc3cccc(Cl)c3F)CC2)c2cccnc21,773
13,COc1ccc(F)cc1S(=O)(=O)N1CC(F)(F)C[C@H]1CN1CCc2ccccc2C1,739
14,CCN(CC)S(=O)(=O)c1ccc2c(c1)N(CC(=O)NCCOC)C(=O)C1CCCCN21 (centres undefined),788
15,N#Cc1cccc(NC(=O)C2CCN(S(=O)(=O)c3cc(C(=O)N4CCOCC4)cs3)CC2)c1,748
16,CCSc1nc2c(s1)c(=O)n(-c1ccccc1)c(=O)n2CC(=O)NCc1ccccc1,924
17,Cc1ccc(C(=O)N(C)Cc2cccnc2Oc2ccccc2)cn1,861
18,Cc1nc(-c2ccc(Cl)cc2)oc1COC(C)(C)C(=O)O,909
19,Cc1ccc(O)c(CNC2CCN(c3ccc(C(=O)NC4CC4)cn3)C2)c1 (centres undefined),560
20,CNC(=O)CCc1nc2ccccc2n(CC(=O)NCc2ccc(C)cc2)c1=O,695
21,Cc1cc2[nH]c(C(=O)Nc3ccc(F)c(F)c3)c(CN3CCOCC3)c2s1,740
22,Cc1ccc(Sc2nccnc2N2CCCC(C(=O)NCc3ccc(F)cc3F)C2)cc1 (centres undefined),1130
23,CC(NC(=O)c1ccc2ncnc(N3CCCCC3)c2c1)c1cccnc1 (centres undefined),545

row,Compound,RP-LC retention time [s]
1,CCOc1ccc(-c2cn3ccn(-c4ccc(F)c(Cl)c4)c(=O)c3n2)cc1,918
2,Cc1ccc(C)c(NS(=O)(=O)c2cn(C(C)C)c3ncccc23)c1,960
3,Cc1nc(-c2ccc3c(c2)n(CC(=O)NC2CCCC2)c(=O)n3C(C)C)no1,780
4,Clc1cccc(-c2noc(Cc3nc(-c4cccs4)cs3)n2)c1,1270
5,Cc1csc(-c2cc(S(=O)(=O)N3CCN(c4ncccn4)CC3)c(C)n2C)n1,958
6,CCCC(=O)Nc1nc(-c2ccc3c(c2)NC(=O)CO3)cs1,728
7,CCOC(=O)c1cn[nH]c1S(=O)(=O)N1CCC(C(N)=O)CC1,585
8,CCN1CCN(C(=O)CN2C(=O)C3CCCCN3c3ccc(S(=O)(=O)N(C)C)cc32)CC1 (centres undefined),620
9,COc1ccc(C2C(C(=O)NCc3ccco3)c3ccccc3C(=O)N2C)cc1 (centres undefined),776
10,NC(=O)C1CCN(S(=O)(=O)c2ccc(N3C(=O)CCS3(=O)=O)cc2)CC1,622
11,CCn1c(C)cc(=O)c2cc(C(=O)Nc3nc(C)c(C)s3)ccc21,578
12,COC(=O)c1cc2ccsc2n1CC(=O)Nc1ccc(F)cc1F,949
13,COc1cccc(S(=O)(=O)N2CCC(Cc3nncn3C)C2)c1 (centres undefined),630
14,Cc1ccc(NC(=O)c2nnc(CCCC(=O)NCCc3c[nH]c4ccc(C)cc34)s2)cc1,946
15,COc1cccc(CNC(=O)C2CCCN2S(=O)(=O)c2ccc3c(c2)C(C)(C)C(=O)N3C)c1 (centres undefined),821
16,Cc1noc(-c2csc(C(=O)N3CCCC3)n2)n1,688
17,CCNC(=O)c1nc(C(=O)NCCC(C)C)cs1,771
18,CC(C)(N)c1ncc(-c2ccc(OC(F)(F)F)cc2)[nH]1,693
19,Cc1cnc(C)n1CC1CCN(S(=O)(=O)c2ccc(C#N)cc2)C1 (centres undefined),628
20,O=C(c1ccc2c(=O)n3c(nc2c1)CCCC3)N1CCC(Cc2ccccc2)CC1,878
21,CN1C(=O)Cc2cc(C(=O)NCc3ccccc3Cl)ccc21,738
22,COc1cccc(CNC(=O)Cn2ccc3ccc(N4CCOCC4)nc32)c1,858
23,Cc1ccc(S(=O)(=O)N2CCC(n3cnnc3C(C)C)CC2)cc1F,756

row,Compound,RP-LC retention time [s]
1,CC(=O)Nc1ccc2nc(NC(=O)c3cccc(C(F)(F)F)c3)sc2c1,784
2,CCOc1ccc2nc(NCc3ccco3)sc2c1,728
3,O=c1ccn(-c2ccc(Cl)cc2)nc1-c1nc(-c2ccccc2Cl)no1,963
4,O=C1CC(C(=O)N2CCc3ccccc3C2)CN1CCc1c[nH]c2ccc(Cl)cc12 (centres undefined),879
5,Cc1nc(-c2ccc(-c3noc(COc4ccc(Cl)cc4)n3)cc2)cs1,1280
6,CCOC(=O)c1c(C)[nH]c(CCC(=O)NCc2ccc3c(c2)OCO3)c1C,738
7,COc1cccc(C2Cn3nnc(-c4nc(-c5ccc(OC(C)C)cc5)no4)c3CO2)c1 (centres undefined),1250
8,CCc1nnc2cc(N3CCN(S(=O)(=O)c4ccc(C)cc4)CC3)cnn12,732
9,CCc1ccc(Oc2cc(N3CCC(C(=O)NCCCc4ccccc4)CC3)ncn2)cc1,1080
10,Cc1nc([C@@H]2CN(C(=O)c3cccs3)C[C@H]2C(N)=O)n[nH]1,562
11,COc1cccc(CN2CCC3(CC2)CC(O)CCO3)c1OC (centres undefined),582
12,CCOc1ccccc1NC(=O)C1(C)Oc2cccnc2NC1=O (centres undefined),776
13,CCOc1cc(C(=O)NC2CCN(c3cc(-c4ccccc4)[nH]n3)C2)cc(OCC)c1OCC (centres undefined),822
14,CC1(c2nc(C3CC3)no2)CCCN(C(=O)c2n[nH]c3ccccc23)C1 (centres undefined),781
15,CSc1nnc(CCc2c(C)[nH]c(=O)[nH]c2=O)o1,549
16,COc1ccc(C(=O)N2C[C@H](c3nc(-c4ccncc4)no3)[C@@H](C)C2)c(OC)c1,743
17,Cc1nc2cccnc2n1CCN1CCN(C(=O)Nc2ccc(F)cc2F)CC1,585
18,COc1ccc(Cl)cc1NC(=O)N1CCN(CCn2cnc3cccnc32)CC1,625
19,O=C(Nc1ccc(F)cc1F)C1CCCN(S(=O)(=O)c2c[nH]c(C(=O)N3CCCC3)c2)C1 (centres undefined),792
20,CCc1nc(OCC(=O)NCc2ccccc2Cl)c2c(C)c(C)oc2n1,1020
